From patent US9884832B2 (priority 2011, dated 2018)
Like-named read-outs stand apart in the source and are kept apart here.

How the values were obtained:
[1] = molecular target: AM2 V27A (valine→alanine mutation at residue 27 in the M2 protein) (Influenza A virus, UniProt P0DOF5, V27A); type: cell-based, influenza virus A/Udorn/72
[2] = molecular target: AM2 S31N (serine→asparagine mutation at residue 31 in the M2 protein) (Influenza A virus, UniProt P0DOF5, S31N); type: cell-based, influenza virus A/Udorn/72

| Structure (SMILES) | V27A OOcyte Inhibition at 100 uM (%) ([1]; pH 5.5) | S31N OOcyte Inhibition at 100 uM (%) ([2]; pH 5.5) | V27A OOcyte Inhibition at 100 uM (%) [1] | S31N OOcyte Inhibition at 100 uM (%) [2] |
| --- | --- | --- | --- | --- |
| CC(NCc1ccc(O)cc1)C12CC3CC(CC(C3)C1)C2 (centres unmarked) [Example 4, 4-[(1-Adamantan-1-yl-ethylamino)-methyl]-phenol] | B (key: (A)=31-95%; (B)=0-30%) | B (key: (A)=31-95%; (B)=0-30%) | – | – |
| FC(F)(F)Oc1ccc(CNC23CC4CC(CC(C4)C2)C3)cc1 [Example 4a, Adamantan-1-yl-(4-trifluoromethoxy-benzyl)-amine] | – | – | B (key: (A)=31-95%; (B)=0-30%) | B (key: (A)=31-95%; (B)=0-30%) |
| N=C(Nc1ccc(O)cc1)C12CC3CC(CC(C3)C1)C2 [Example 5] | B (key: (A)=31-95%; (B)=0-30%) | B (key: (A)=31-95%; (B)=0-30%) | – | – |
| FC(F)(F)c1ccc(CNC23CC4CC(CC(C4)C2)C3)cc1 [Example 5a, Adamantan-1-yl-(4-trifluoromethyl-benzyl)-amine] | – | – | B (key: (A)=31-95%; (B)=0-30%) | B (key: (A)=31-95%; (B)=0-30%) |
| Oc1ccc(/C=N/C23CC4CC(CC(C4)C2)C3)cc1 [Example 6] | B (key: (A)=31-95%; (B)=0-30%) | B (key: (A)=31-95%; (B)=0-30%) | – | – |
| C[Si](C)(C)c1ccc(CNC23CC4CC(CC(C4)C2)C3)cc1 [Example 6a, Adamantan-1-yl-(4-trimethylsilanyl-benzyl)-amine] | – | – | B (key: (A)=31-95%; (B)=0-30%) | A (key: (A)=31-95%; (B)=0-30%) |
| Oc1ccc(/C=N/C23CC4CC(CC(C4)C2)C3)c(O)c1 [Example 7] | A (key: (A)=31-95%; (B)=0-30%) | B (key: (A)=31-95%; (B)=0-30%) | – | – |
| CC(C)(C)c1ccc(CNC23CC4CC(CC(C4)C2)C3)cc1 [Example 7a, N-(4-(tert-Butyl)benzyl)adamantan-1-amine methanesulfonate] | – | – | B (key: (A)=31-95%; (B)=0-30%) | A (key: (A)=31-95%; (B)=0-30%) |
| c1ccc(CNC23CC4CC(CC(C4)C2)C3)cc1 [Example 8, Adamantan-1-yl-benzyl-amine] | B (key: (A)=31-95%; (B)=0-30%) | B (key: (A)=31-95%; (B)=0-30%) | – | – |
| Oc1ccc(CNC23CC4CC(CC(C4)C2)C3)cc1 [Example 9, 4-(Adamantan-1-ylaminomethyl)-phenol] | B (key: (A)=31-95%; (B)=0-30%) | A (key: (A)=31-95%; (B)=0-30%) | – | – |
| c1cc(C2CCCCC2)ccc1CNC12CC3CC(CC(C3)C1)C2 [Example 10a, Adamantan-1-yl-(4-cyclohexyl-benzyl)-amine] | – | – | B (key: (A)=31-95%; (B)=0-30%) | A (key: (A)=31-95%; (B)=0-30%) |
| Nc1ccc(CNC23CC4CC(CC(C4)C2)C3)cc1 [Example 11, Adamantan-1-yl-(4-amino-benzyl)-amine] | B (key: (A)=31-95%; (B)=0-30%) | B (key: (A)=31-95%; (B)=0-30%) | – | – |
| COc1ccc(C(C)NC23CC4CC(CC(C4)C2)C3)cc1 (centres unmarked) [Example 11a, N-(1-(4-methoxyphenyl)ethyl)adamantan-1-amine] | – | – | A (key: (A)=31-95%; (B)=0-30%) | A (key: (A)=31-95%; (B)=0-30%) |
| CC(C)(C)OC(=O)Nc1ccc(CNC23CC4CC(CC(C4)C2)C3)cc1 [Example 12, [4-(Adamantan-1-ylaminomethyl)-phenyl]carbamic acid tert-butyl ester] | B (key: (A)=31-95%; (B)=0-30%) | B (key: (A)=31-95%; (B)=0-30%) | – | – |
| CCSc1ccc(CNC23CC4CC(CC(C4)C2)C3)cc1 [Example 12a, N-(4-(ethylthio)benzyl)adamantan-1-amine] | – | – | B (key: (A)=31-95%; (B)=0-30%) | A (key: (A)=31-95%; (B)=0-30%) |
| NCc1ccc(CNC23CC4CC(CC(C4)C2)C3)cc1 [Example 13, Adamantan-1-yl-(4-aminomethyl-benzyl)-amine] | A (key: (A)=31-95%; (B)=0-30%) | B (key: (A)=31-95%; (B)=0-30%) | – | – |
| c1ccc(Oc2ccc(CNC34CC5CC(CC(C5)C3)C4)cc2)cc1 [Example 13a, Adamantan-1-yl-(4-phenoxy-benzyl)-amine] | – | – | B (key: (A)=31-95%; (B)=0-30%) | A (key: (A)=31-95%; (B)=0-30%) |

| Structure (SMILES) | V27A OOcyte Inhibition at 100 uM (%) ([1]; pH 5.5) | S31N OOcyte Inhibition at 100 uM (%) ([2]; pH 5.5) | V27A OOcyte Inhibition at 100 uM (%) [1] | S31N OOcyte Inhibition at 100 uM (%) [2] |
| --- | --- | --- | --- | --- |
| N#Cc1ccc(CNC23CC4CC(CC(C4)C2)C3)cc1 [Example 14, 4-(Adamantan-1-ylaminomethyl)-benzonitrile] | B (key: (A)=31-95%; (B)=0-30%) | B (key: (A)=31-95%; (B)=0-30%) | – | – |
| COc1cccc(COc2ccc(CNC34CC5CC(CC(C5)C3)C4)cc2)c1 [Example 14a, Adamantan-1-yl-[4-(3-methoxy-benzyloxy)-benzyl]-amine] | – | – | B (key: (A)=31-95%; (B)=0-30%) | A (key: (A)=31-95%; (B)=0-30%) |
| c1cc(-c2nnn[nH]2)ccc1CNC12CC3CC(CC(C3)C1)C2 [Example 15, Adamantan-1-yl-[4-(1H-tetrazol-5-yl)-benzyl]amine] | B (key: (A)=31-95%; (B)=0-30%) | B (key: (A)=31-95%; (B)=0-30%) | – | – |
| COc1ccccc1COc1ccc(CNC23CC4CC(CC(C4)C2)C3)cc1 [Example 15a, Adamantan-1-yl-[4-(2-methoxy-benzyloxy)-benzyl]-amine] | – | – | B (key: (A)=31-95%; (B)=0-30%) | A (key: (A)=31-95%; (B)=0-30%) |
| COc1ccc(CNC23CC4CC(CC(C4)C2)C3)cc1 [Example 16, Adamantan-1-yl-(4-methoxy-benzyl)-amine] | A (key: (A)=31-95%; (B)=0-30%) | A (key: (A)=31-95%; (B)=0-30%) | – | – |
| Clc1ccc(COc2ccc(CNC34CC5CC(CC(C5)C3)C4)cc2)cc1 [Example 16a, Adamantan-1-yl-[4-(4-chloro-benzyloxy)-benzyl]-amine] | – | – | B (key: (A)=31-95%; (B)=0-30%) | A (key: (A)=31-95%; (B)=0-30%) |
| NC(=O)c1ccc(CNC23CC4CC(CC(C4)C2)C3)cc1 [Example 18, 4-(Adamantan-1-ylaminomethyl)-benzamide] | B (key: (A)=31-95%; (B)=0-30%) | B (key: (A)=31-95%; (B)=0-30%) | – | – |
| O=[N+]([O-])c1ccc(CNC23CC4CC(CC(C4)C2)C3)cc1 [Example 19, Adamantan-1-yl-(4-nitro-benzyl)-amine] | B (key: (A)=31-95%; (B)=0-30%) | B (key: (A)=31-95%; (B)=0-30%) | – | – |
| CCOc1ccc(CNC23CC4CC(CC(C4)C2)C3)cc1 [Example 20, Adamantan-1-yl-(4-ethoxy-benzyl)-amine] | B (key: (A)=31-95%; (B)=0-30%) | A (key: (A)=31-95%; (B)=0-30%) | – | – |
| c1coc(COc2ccc(CNC34CC5CC(CC(C5)C3)C4)cc2)c1 [Example 21, Adamantan-1-yl-[4-(furan-2-ylmethoxy)-benzyl]-amine] | A (key: (A)=31-95%; (B)=0-30%) | A (key: (A)=31-95%; (B)=0-30%) | – | – |
| c1cc(COc2ccc(CNC34CC5CC(CC(C5)C3)C4)cc2)co1 [Example 22, Adamantan-1-yl-[4-(furan-3-ylmethoxy)-benzyl]-amine] | B (key: (A)=31-95%; (B)=0-30%) | A (key: (A)=31-95%; (B)=0-30%) | – | – |
| CSc1ccc(CNC23CC4CC(CC(C4)C2)C3)cc1 [Example 23, Adamantan-1-yl-(4-methylsulfanyl-benzyl)-amine] | B (key: (A)=31-95%; (B)=0-30%) | A (key: (A)=31-95%; (B)=0-30%) | – | – |
| C[S+]([O-])c1ccc(CNC23CC4CC(CC(C4)C2)C3)cc1 (centres unmarked) [Example 24, Adamantan-1-yl-(4-methanesulfinyl-benzyl)-amine] | B (key: (A)=31-95%; (B)=0-30%) | B (key: (A)=31-95%; (B)=0-30%) | – | – |
| CS(=O)(=O)c1ccc(CNC23CC4CC(CC(C4)C2)C3)cc1 [Example 25, Adamantan-1-yl-(4-methanesulfonyl-benzyl)-amine] | B (key: (A)=31-95%; (B)=0-30%) | B (key: (A)=31-95%; (B)=0-30%) | – | – |
| FC(F)(F)Sc1ccc(CNC23CC4CC(CC(C4)C2)C3)cc1 [Example 26, Adamantan-1-yl-(4-trifluoromethylsulfanyl-benzyl)-amine] | B (key: (A)=31-95%; (B)=0-30%) | A (key: (A)=31-95%; (B)=0-30%) | – | – |
| Fc1ccc(CNC23CC4CC(CC(C4)C2)C3)cc1 [Example 27, Adamantan-1-yl-(4-fluoro-benzyl)-amine] | B (key: (A)=31-95%; (B)=0-30%) | B (key: (A)=31-95%; (B)=0-30%) | – | – |
| Oc1ccccc1CNC12CC3CC(CC(C3)C1)C2 [Example 28, 2-(Adamantan-1-ylaminomethyl)-phenol] | B (key: (A)=31-95%; (B)=0-30%) | B (key: (A)=31-95%; (B)=0-30%) | – | – |
